{"source": "patent US20250186494A1", "about": "“CAR-T THERAPIES TARGETED VIA COVALENTLY BONDED ADAPTERS” (THE SCRIPPS RESEARCH INSTITUTE, priority 2023, published 2025)", "origin": "cited, not measured here", "biological_target": "PSMA (Homo sapiens, UniProt Q04609)", "sequence (Q04609 whole entry)": "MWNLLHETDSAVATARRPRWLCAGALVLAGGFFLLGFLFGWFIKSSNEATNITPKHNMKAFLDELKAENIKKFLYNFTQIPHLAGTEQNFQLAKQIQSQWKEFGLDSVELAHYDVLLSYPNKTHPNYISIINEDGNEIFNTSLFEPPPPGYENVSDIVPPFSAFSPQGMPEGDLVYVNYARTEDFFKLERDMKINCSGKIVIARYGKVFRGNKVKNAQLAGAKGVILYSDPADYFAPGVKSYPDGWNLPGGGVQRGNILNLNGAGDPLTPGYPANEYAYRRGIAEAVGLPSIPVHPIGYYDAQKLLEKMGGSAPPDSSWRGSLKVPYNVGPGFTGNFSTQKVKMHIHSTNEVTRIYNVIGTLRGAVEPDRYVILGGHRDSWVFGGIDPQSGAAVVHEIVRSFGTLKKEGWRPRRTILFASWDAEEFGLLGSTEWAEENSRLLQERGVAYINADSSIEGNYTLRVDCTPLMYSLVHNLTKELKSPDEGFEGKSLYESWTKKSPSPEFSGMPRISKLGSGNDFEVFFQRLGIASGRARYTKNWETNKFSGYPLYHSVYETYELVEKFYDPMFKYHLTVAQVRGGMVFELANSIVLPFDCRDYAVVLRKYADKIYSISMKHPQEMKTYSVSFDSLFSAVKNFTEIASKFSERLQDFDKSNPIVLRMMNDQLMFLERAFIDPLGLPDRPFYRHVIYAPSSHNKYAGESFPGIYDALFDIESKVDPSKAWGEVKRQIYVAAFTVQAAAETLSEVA", "settings": "already known targeting moiety"}
{"smiles": "O=C(O)CCC(NC(=O)NC(CCC(=O)O)C(=O)O)C(=O)O", "note": "(stereo not shown) [DUPA, 2-[3-(1,3-dicarboxypropyl)ureido]pentanedioic acid]", "values": [{"measurement": "affinity for PSMA", "value": "nM affinity"}]}
